Data published in patent US9012496B2, “Pharmaceutical compositions of (R)-1-(2,2-difluorobenzo[D][1,3]dioxol-5-yl)-N-(1-(2,3-dihydroxypropyl)-6-fluoro-2-(1-hydroxy-2-methylpropan-2-yl)-1H-indol-5-yl)cyclopropanecarboxamide and administration thereof” (Vertex Pharmaceuticals Incorported, priority 2012, dated 2015).

Target: T1, ΔF508-CFTR (Homo sapiens, UniProt P13569, DEL508-508)
T1 construct: expressed in transfected cells; host or cells: NIH3T3 mouse fibroblasts (optical membrane potential assay, whole-cell and single-channel recordings); Fisher rat epithelial (FRT) cells (Ussing chamber)
T1 sequence (P13569 with tags, fused parts or gaps DEL508-508): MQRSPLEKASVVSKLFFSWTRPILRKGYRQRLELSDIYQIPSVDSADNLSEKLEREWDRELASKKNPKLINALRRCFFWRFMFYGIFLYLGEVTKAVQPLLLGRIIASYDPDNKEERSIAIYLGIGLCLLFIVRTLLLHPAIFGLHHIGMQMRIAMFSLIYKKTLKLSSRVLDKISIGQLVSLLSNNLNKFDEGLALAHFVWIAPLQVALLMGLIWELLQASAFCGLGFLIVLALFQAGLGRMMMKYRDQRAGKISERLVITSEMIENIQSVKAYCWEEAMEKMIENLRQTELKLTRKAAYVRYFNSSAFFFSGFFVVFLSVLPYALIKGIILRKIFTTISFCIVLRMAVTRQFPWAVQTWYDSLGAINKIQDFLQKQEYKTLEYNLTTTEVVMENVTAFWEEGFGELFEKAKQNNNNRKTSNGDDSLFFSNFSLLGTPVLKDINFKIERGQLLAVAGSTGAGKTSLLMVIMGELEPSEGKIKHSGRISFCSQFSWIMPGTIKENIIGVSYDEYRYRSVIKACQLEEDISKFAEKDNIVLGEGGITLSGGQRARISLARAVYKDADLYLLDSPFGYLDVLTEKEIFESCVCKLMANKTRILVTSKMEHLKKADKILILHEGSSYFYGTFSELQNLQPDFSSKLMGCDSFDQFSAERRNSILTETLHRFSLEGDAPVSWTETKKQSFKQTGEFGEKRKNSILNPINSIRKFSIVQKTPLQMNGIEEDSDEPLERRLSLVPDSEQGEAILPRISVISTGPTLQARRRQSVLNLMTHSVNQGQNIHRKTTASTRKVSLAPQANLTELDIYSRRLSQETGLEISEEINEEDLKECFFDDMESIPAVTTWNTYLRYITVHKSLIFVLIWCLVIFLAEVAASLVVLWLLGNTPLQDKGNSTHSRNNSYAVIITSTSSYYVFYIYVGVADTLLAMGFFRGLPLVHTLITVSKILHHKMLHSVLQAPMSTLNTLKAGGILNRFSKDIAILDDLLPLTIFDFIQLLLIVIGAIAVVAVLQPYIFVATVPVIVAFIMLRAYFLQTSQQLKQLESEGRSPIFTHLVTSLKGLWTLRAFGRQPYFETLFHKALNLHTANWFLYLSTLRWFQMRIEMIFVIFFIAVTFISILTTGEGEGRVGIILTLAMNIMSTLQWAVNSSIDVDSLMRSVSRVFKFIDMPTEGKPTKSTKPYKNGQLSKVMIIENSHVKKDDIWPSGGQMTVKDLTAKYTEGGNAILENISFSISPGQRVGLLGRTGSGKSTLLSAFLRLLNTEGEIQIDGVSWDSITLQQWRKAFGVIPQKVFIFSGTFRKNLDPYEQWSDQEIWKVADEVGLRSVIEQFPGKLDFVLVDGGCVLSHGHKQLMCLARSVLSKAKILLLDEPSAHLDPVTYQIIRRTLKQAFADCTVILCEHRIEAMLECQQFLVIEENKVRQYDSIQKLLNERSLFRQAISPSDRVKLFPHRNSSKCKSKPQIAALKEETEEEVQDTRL
Assay: Assays for detecting and measuring ΔF508-CFTR correction properties (membrane potential optical assay; electrophysiological assays)
Assay type: cell-based
Excerpt: Assays for Detecting and Measuring ΔF508-CFTR Correction Properties of Compounds
Membrane potential optical methods for assaying ΔF508-CFTR modulation properties of compounds.
The optical membrane potential assay utilized voltage-sensitive FRET sensors described by Gonzalez and Tsien (See Gonzalez, J. E. and R. Y. Tsien (1995) “Voltage sensing by fluorescence resonance energy transfer in single cells” Biophys J 69(4): 1272-80, and Gonzalez, J. E. and R. Y. Tsien (1997) “Improved indicators of cell membrane potential that use fluorescence resonance energy transfer” Chem Biol 4(4): 269-77) in combination with instrumentation for measuring fluorescence changes such as the Voltage/Ion Probe Reader (VIPR) (See, Gonzalez, J. E., K. Oades, et al. (1999) “Cell-based assays and instrumentation for screening ion-channel targets” Drug Discov Today 4(9): 431-439).
These voltage sensitive assays are based on the change in fluorescence resonant energy transfer (FRET) between the membrane-soluble, voltage-sensitive dye, DiSBAC2(3), and a fluorescent phospholipid, CC2-DMPE, which is attached to the outer leaflet of the plasma membrane and acts as a FRET donor. […] The changes in fluorescence emission were monitored using VIPR™ II, which is an integrated liquid handler and fluorescent detector designed to conduct cell-based screens in 96- or 384-well microtiter plates. […]

## CC(C)(CO)c1cc2cc(NC(=O)C3(c4ccc5c(c4)OC(F)(F)O5)CC3)c(F)cc2n1C[C@@H](O)CO [Compound 1, (R)-1-(2,2-difluorobenzo[d][1,3]dioxol-5-yl)-N-(1-(2,3-dihydroxypropyl)-6-fluoro-2-(1-hydroxy-2-methylpropan-2-yl)-1H-indol-5-yl)cyclopropanecarboxamide]
NIH3T3 mouse fibroblasts stably expressing ΔF508-CFTR, read-out: BinnedEC50
  EC50: ≤ 2000 nM
PercentActivity bins
  BinnedMaxEfficacy: +++ (100.0 < +++)
